Source: patent US10336739B2, “4-hydroxy-3-(heteroaryl)pyridine-2-one APJ agonists” (BRISTOL-MYERS SQUIBB COMPANY, priority 2015, dated 2019)

Each molecule was assayed against human APJ receptor (Homo sapiens (Human), UniProt P35414) (assay: Intracellular cAMP accumulation assay (APJ hcAMP, HTRF)). Conditions: HEK293 cells stably expressing human APJ receptor; inhibition of forskolin-mediated cAMP production; read-out: Human APJ cAMP EC50 Potency range.
Type: cell-based
Method: Intracellular cAMP Accumulation Assay
HEK293 cells stably expressing human APJ receptor were used to assess the activity of compounds. Cultured cells were detached and resuspended in the cAMP Homogeneous Time-Resolved Fluorescence (HTRF) assay buffer (Cisbio cat; #62AM4PEJ). The assay was performed in 384-well assay plates (Perkin-Elmer; cat #6008289) according to assay protocol provided by the manufacturer. Serial dilutions of a compound together with assay buffer containing […] and 2 μM forskolin were added to each well containing 5,000 cells and incubated for 30 minutes at room temperature. Subsequently, cAMP D2 reagent was added in the lysis buffer followed by the EuK antibody (Cisbio; cat #62AM4PEJ) and incubated for 60 min. The fluorescence emission ratio was measured using fluorometer. The intracellular cAMP concentrations (compound-stimulated inhibition of forskolin-mediated cAMP production) were calculated by extrapolation from a standard curve using known cAMP concentrations. The EC50 values were obtained by fitting the data to a sigmoidal concentration-response curve with variable slope.

Chain of human APJ receptor (P35414 whole entry): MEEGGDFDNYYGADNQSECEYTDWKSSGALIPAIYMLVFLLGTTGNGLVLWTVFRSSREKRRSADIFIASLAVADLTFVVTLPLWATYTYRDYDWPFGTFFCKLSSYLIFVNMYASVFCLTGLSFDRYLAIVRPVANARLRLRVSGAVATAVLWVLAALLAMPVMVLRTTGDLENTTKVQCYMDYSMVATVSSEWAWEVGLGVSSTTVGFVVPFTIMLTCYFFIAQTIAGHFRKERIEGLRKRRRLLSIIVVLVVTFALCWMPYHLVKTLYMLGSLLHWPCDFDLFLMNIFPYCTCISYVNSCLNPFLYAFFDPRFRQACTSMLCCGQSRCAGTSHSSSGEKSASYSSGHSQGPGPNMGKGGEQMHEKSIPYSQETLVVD

SMILES	EC50 [nM]
CCCCc1nc(O)c(-c2nnc(Cc3ccc(Cl)cc3)o2)c(O)c1-c1c(OC)ccc(F)c1OC (single isomer, unassigned) [Example 219, 6-butyl-3-{5-[(4-chlorophenyl)methyl]-1,3,4-oxadiazol-2-yl}-5-(3-fluoro-2,6-dimethoxyphenyl)pyridine-2,4-diol]	0.01 to 10

Same assay, conditions: HEK293 cells stably expressing human APJ receptor; inhibition of forskolin-mediated cAMP production; read-out: hAPJ cAMP EC50 (nM) Potency range

SMILES	EC50 [nM]
CCCCc1nc(O)c(-c2nnc(CC(=O)NCc3ccccc3C)o2)c(O)c1-c1c(OC)cccc1OC [Example 264, 2-{5-[6-butyl-5-(2,6-dimethoxyphenyl)-2,4-dihydroxy-pyridin-3-yl]-1,3,4-oxadiazol-2-yl}-N-[(2-methylphenyl)methyl]acetamide]	0.01 to 10
CCCCc1nc(O)c(-c2nnc(CC(=O)N(C)CCc3ccccc3)o2)c(O)c1-c1c(OC)cccc1OC [Example 261, 2-{5-[6-butyl-5-(2,6-dimethoxyphenyl)-2,4-dihydroxy-pyridin-3-yl]-1,3,4-oxadiazol-2-yl}-N-methyl-N-(2-phenylethyl) acetamide]	0.01 to 10
CCOCc1nc(O)c(-c2nnc(CNC(=O)c3ccccc3)o2)c(O)c1-c1ccccc1OC [Example 251, N-({5-[6-(ethoxymethyl)-2,4-dihydroxy-5-(2-methoxyphenyl)-pyridin-3-yl]-1,3,4-oxadiazol-2-yl}methyl) benzamide]	0.01 to 10
CCCCc1nc(O)c(-c2nnc(CC(=O)NCCc3ccc(Cl)cc3)o2)c(O)c1-c1c(OC)cccc1OC [Example 267, 2-{5-[6-butyl-5-(2,6-dimethoxyphenyl)-2,4-dihydroxy-pyridin-3-yl]-1,3,4-oxadiazol-2-yl}-N-[2-(4-chlorophenyl)ethyl]acetamide]	0.01 to 10
COCCOCc1nc(O)c(-c2nnc(Cc3ccc(Cl)cn3)o2)c(O)c1-c1c(OC)cccc1OC [Example 240, 3-{5-[(5-chloropyridin-2-yl)methyl]-1,3,4-oxadiazol-2-yl}-5-(2,6-dimethoxyphenyl)-6-[(2-methoxyethoxy)methyl] pyridine-2,4-diol]	0.01 to 10
CCCCc1nc(O)c(-c2nnc(CNC(=O)c3ccccc3)o2)c(O)c1-c1cc(OC)ccc1OC [Example 246, N-({5-[6-butyl-5-(2,5-dimethoxyphenyl)-2,4-dihydroxy-pyridin-3-yl]-1,3,4-oxadiazol-2-yl}methyl) benzamide]	0.01 to 10

Same assay, conditions: HEK293 cells stably expressing human APJ receptor; inhibition of forskolin-mediated cAMP production; read-out: hAPJ cAMP EC50 Potency range

SMILES	EC50 [nM]
CCCCc1nc(O)c(-c2nnc(Cc3nnn(C)n3)o2)c(O)c1-c1c(OC)cccc1OC [Example 63, 6-butyl-5-(2,6-dimethoxyphenyl)-3-{5-[(2-methyl-2H-1,2,3,4-tetrazol-5-yl)methyl]-1,3,4-oxadiazol-2-yl}pyridine-2,4-diol]	0.01 to 10
CCCCc1nc(O)c(-c2nnc(CCc3nccs3)o2)c(O)c1-c1c(OC)cccc1OC [Example 72, 6-butyl-5-(2,6-dimethoxyphenyl)-3-{5-[2-(1,3-thiazol-2-yl)ethyl]-1,3,4-oxadiazol-2-yl}pyridine-2,4-diol]	0.01 to 10
CCCCc1nc(O)c(-c2nnc(CNC(=O)COC)o2)c(O)c1-c1c(OC)cccc1OC [Example 158, N-({5-[6-butyl-5-(2,6-dimethoxyphenyl)-2,4-dihydroxypyridin-3-yl]-1,3,4-oxadiazol-2-yl}methyl)-2-methoxyacetamide]	0.01 to 10
CCCCc1nc(O)c(-c2nnc(Cc3ccc(Cl)cc3Cl)o2)c(O)c1-c1c(OC)cccc1OC [Example 35, 6-butyl-3-{5-[(2,4-dichlorophenyl)methyl]-1,3,4-oxadiazol-2-yl}-5-(2,6-dimethoxyphenyl) pyridine-2,4-diol]	0.01 to 10
CCCCc1[nH]c(=O)c(-c2nnc(Cc3csc(C)n3)o2)c(O)c1-c1cccc(C(=O)NC(C)C)c1 [Example 149, 3-(2-butyl-4-hydroxy-5-{5-[(2-methyl-1,3-thiazol-4-yl)methyl]-1,3,4-oxadiazol-2-yl}-6-oxo-1,6-dihydropyridin-3-yl)-N-(propan-2-yl)benzamide]	0.01 to 10
CCCCc1nc(O)c(-c2nnc(CC(=O)NCC(F)(F)F)o2)c(O)c1-c1c(OC)cccc1OC [Example 192, 2-{5-[6-butyl-5-(2,6-dimethoxyphenyl)-2,4-dihydroxypyridin-3-yl]-1,3,4-oxadiazol-2-yl}-N-(2,2,2-trifluoroethyl) acetamide]	0.01 to 10
CCOCc1nc(O)c(-c2nnc(Cn3ccc(-c4ccccc4)n3)o2)c(O)c1-c1c(OC)cccc1OC [Example 128, 5-(2,6-dimethoxyphenyl)-6-(ethoxymethyl)-3-{5-[(3-phenyl-1H-pyrazol-1-yl)methyl]-1,3,4-oxadiazol-2-yl}pyridine-2,4-diol]	0.01 to 10
CCOCc1nc(O)c(-c2nnc(Cc3ccc(Cl)cc3)o2)c(O)c1-c1c(OC)cccc1OC [Example 90, 3-{5-[(4-chlorophenyl)methyl]-1,3,4-oxadiazol-2-yl}-5-(2,6-dimethoxyphenyl)-6-(ethoxymethyl) pyridine-2,4-diol]	0.01 to 10
CCCCc1nc(O)c(-c2nnc(Cc3nnc(-c4ccccc4)[nH]3)o2)c(O)c1-c1c(OC)cccc1OC [Example 66, 6-butyl-5-(2,6-dimethoxyphenyl)-3-{5-[(5-phenyl-4H-1,2,4-triazol-3-yl)methyl]-1,3,4-oxadiazol-2-yl}pyridine-2,4-diol]	0.01 to 10
CCCCc1nc(O)c(-c2nnc(CNC(=O)c3ccncc3)o2)c(O)c1-c1c(OC)cccc1OC [Example 164, N-({5-[6-butyl-5-(2,6-dimethoxyphenyl)-2,4-dihydroxypyridin-3-yl]-1,3,4-oxadiazol-2-yl}methyl)pyridine-4-carboxamide]	0.01 to 10
CCCCc1nc(O)c(-c2nnc(CC(=O)NCCF)o2)c(O)c1-c1c(OC)cccc1OC [Example 190, 2-{5-[6-butyl-5-(2,6-dimethoxyphenyl)-2,4-dihydroxypyridin-3-yl]-1,3,4-oxadiazol-2-yl}-N-(2-fluoroethyl) acetamide]	0.01 to 10
CCCCc1nc(O)c(-c2nnc(Cc3nc(-c4ccccc4)oc3C)o2)c(O)c1-c1c(OC)cccc1OC [Example 91, 6-butyl-5-(2,6-dimethoxyphenyl)-3-{5-[(5-methyl-2-phenyl-1,3-oxazol-4-yl)methyl]-1,3,4-oxadiazol-2-yl}pyridine-2,4-diol]	0.01 to 10
CCCCc1nc(O)c(-c2nnc(CNC(=O)C(F)(F)F)o2)c(O)c1-c1c(OC)cccc1OC [Example 176, N-({5-[6-butyl-5-(2,6-dimethoxyphenyl)-2,4-dihydroxypyridin-3-yl]-1,3,4-oxadiazol-2-yl}methyl)-2,2,2-trifluoroacetamide]	10 to 100
CCCCc1nc(O)c(-c2nnc(CN3C(=O)CN(C)C3=O)o2)c(O)c1-c1c(OC)cccc1OC [Example 98, 3-({5-[6-butyl-5-(2,6-dimethoxyphenyl)-2,4-dihydroxypyridin-3-yl]-1,3,4-oxadiazol-2-yl}methyl)-1-methyl-imidazolidine-2,4-dione]	0.01 to 10
CCCCc1nc(O)c(-c2nnc(Cc3nc(C4CC4)no3)o2)c(O)c1-c1c(OC)cccc1OC [Example 109, 6-butyl-3-{5-[(3-cyclopropyl-1,2,4-oxadiazol-5-yl)methyl]-1,3,4-oxadiazol-2-yl}-5-(2,6-dimethoxyphenyl) pyridine-2,4-diol]	0.01 to 10
CCCCc1nc(O)c(-c2nnc(Cc3ccc(F)c(F)c3)o2)c(O)c1-c1cccc(CC)c1 [Example 140, 6-butyl-3-{5-[(3,4-difluorophenyl)methyl]-1,3,4-oxadiazol-2-yl}-5-(3-ethylphenyl) pyridine-2,4-diol]	10 to 100
CCCCc1nc(O)c(-c2nnc(CN)o2)c(O)c1-c1c(OC)cccc1OC [Example 170, 3-[5-(aminomethyl)-1,3,4-oxadiazol-2-yl]-6-butyl-5-(2,6-dimethoxyphenyl) pyridine-2,4-diol]	10 to 100
CCCCc1[nH]c(=O)c(-c2nnc(Cc3csc(C)n3)o2)c(O)c1-c1cccc(C(C)C)c1 [Example 148, 6-butyl-4-hydroxy-3-{5-[(2-methyl-1,3-thiazol-4-yl)methyl]-1,3,4-oxadiazol-2-yl}-5-[3-(propan-2-yl)phenyl]-1,2-dihydropyridin-2-one]	0.01 to 10
CCCCc1nc(O)c(-c2nnc(COc3ccc(C(F)(F)F)cc3)o2)c(O)c1-c1c(OC)cccc1OC [Example 65, 6-butyl-5-(2,6-dimethoxyphenyl)-3-{5-[4-(trifluoromethyl)phenoxymethyl]-1,3,4-oxadiazol-2-yl}pyridine-2,4-diol]	10 to 100
CCCCc1nc(O)c(-c2nnc(CC(=O)NC)o2)c(O)c1-c1c(OC)cccc1OC [Example 179, 2-{5-[6-butyl-5-(2,6-dimethoxyphenyl)-2,4-dihydroxypyridin-3-yl]-1,3,4-oxadiazol-2-yl}-N-methylacetamide]	0.01 to 10
CCCCc1nc(O)c(-c2nnc(CN(C)C(=O)c3ccccn3)o2)c(O)c1-c1c(OC)cccc1OC [Example 157, N-({5-[6-butyl-5-(2,6-dimethoxyphenyl)-2,4-dihydroxypyridin-3-yl]-1,3,4-oxadiazol-2-yl}methyl)-N-methylpyridine-2-carboxamide]	0.01 to 10
CCCCc1nc(O)c(-c2nnc(CN(C)C(=O)C(C)(C)C)o2)c(O)c1-c1c(OC)cccc1OC [Example 169, N-({5-[6-butyl-5-(2,6-dimethoxyphenyl)-2,4-dihydroxypyridin-3-yl]-1,3,4-oxadiazol-2-yl}methyl)-N,2,2-trimethyl-propanamide]	0.01 to 10
